Like-named read-outs stand apart in the source and are kept apart here.
Key:
Assay type in all cases: cell-based
[1] = tested on: HIV-1 HBX2 (wild type); assay: High throughput cytopathic effect assay in MT-4 cells, wild type HIV-1
Text: (§1) Compounds were screened in a miniaturized, high throughput cytopathic effect assay for activity against HIV-1 HBX2 (wild type) and HIV-1 reverse transcriptase mutants K103N and Y181C. In Tables 1 and 2 below. “w.t.” refers to results of the tested compounds run with the wildtype 1 and “w.t, assay 2” refers results of the tested compounds run with the wildtype on the same day as the testing of the compounds with the mutants. Thus, “w.t, assay 2” was run under the same conditions as the testing of the compounds with the mutants and provides a direct comparison with the results from the testing with the mutants.
(§2) Ten-point serial dilutions of compounds with half-log step size were generated in DMSO. AZT ([…]) was used as the positive control and DMSO as the negative control. The Echo acoustic dispenser was used to deliver 200 nL of serially diluted compound into sterile 384 well tissue culture assay plates. Two million MT-4 cells were incubated with each of the 3 viruses at MOI of 0.0005 in separate 1 mL infection tubes for 1 hour at 37° C. The cells were diluted in cell culture medium (RPMI+10% FBS) to 50.000 cells/mL. The infected cells were added to 384 well assay plates containing serially dilute compounds. Assay plates were incubated for 5 days in a humidified incubator set at 37° C. and 5% CO2. To measure the cytopathic effect of HIV, 40 μL Cell TiterGlo was added to each well and the resulting luminescence signal is read with the Envision plate reader (Perkin Elmer). Data were normalized to positive and negative controls in each plate and expressed as % CPE Protection. EC50 values were defined as the compound concentration that caused a 50% decrease in luminescence signal, and were calculated by non-linear regression using Pipeline Pilot software by applying a four parameter fit equation (Accelrys, San Diego, Calif.).

[2] = tested on: HIV-1 reverse transcriptase mutant K103N; assay: High throughput cytopathic effect assay in MT-4 cells, K103N mutant; conditions: for EC50: Human immunodeficiency virus 1, MT4, 120 h, read-out: MT4 EC50 (nM) against K103N; for FC against mutant K103N: fold change of MT4 EC50 versus w.t. assay 2
Text: as §1, §2

[3] = tested on: HIV-1 reverse transcriptase mutant Y181C; assay: High throughput cytopathic effect assay in MT-4 cells, Y181C mutant; conditions: for EC50: Human immunodeficiency virus 1, MT4, 120 h, read-out: MT4 EC50 (nM) against Y181C; for FC against mutant Y181C: fold change of MT4 EC50 versus w.t. assay 2
Text: as §1, §2

[4] = Human immunodeficiency virus 1, MT4, 120 h, MT-4 cells, 5 days, cytopathic effect, Cell TiterGlo, read-out: MT4 EC50 (nM) against w.t.
[5] = Human immunodeficiency virus 1, MT4, read-out: MT4 EC50 (nM) against w.t. assay 2

## CC(C#N)=Cc1cc(C)c(-c2cccc3c(N)nc(Nc4ccc(C#N)cc4)nc23)c(C)c1 (racemic) [Compound 40, 4-((4-Amino-8-(4-(2-cyanoprop-1-en-1-yl)-2,6-dimethylphenyl)quinazolin-2-yl)amino)benzonitrile]
[1]; [4]
  EC50: 6.8 nM
[1]; [5]
  EC50: 9.9 nM
[2]
  EC50: 16.3 nM
  FC against mutant K103N: 1.7
[3]
  EC50: 36.1 nM
  FC against mutant Y181C: 3.7

## Cc1cc(/C=C/C#N)cc(C)c1-c1cccc2c(NCC3CC3)nc(Nc3ccc(C#N)cc3)nc12 [Compound 6, (E)-4-((8-(4-(2-Cyanovinyl)-2,6-dimethylphenyl)-4-((cyclopropylmethyl)amino)quinazolin-2-yl)amino)benzonitrile]
[1]; [4]
  EC50: 99.3 nM
[1]; [5]
  EC50: 82.6 nM
[2]
  EC50: 81.1 nM
  FC against mutant K103N: 1.0
[3]
  EC50: 470 nM
  FC against mutant Y181C: 5.7

## CCCCNc1nc(Nc2ccc(C#N)cc2)nc2c(-c3c(C)cc(/C=C/C#N)cc3C)cccc12 [Compound 7, (E)-4-((4-(Butylamino)-8-(4-(2-cyanovinyl)-2,6-dimethylphenyl)quinazolin-2-yl)amino)benzonitrile]
[1]; [4]
  EC50: 122 nM
[1]; [5]
  EC50: 117 nM
[2]
  EC50: 130 nM
  FC against mutant K103N: 1.1
[3]
  EC50: > 500 nM
  FC against mutant Y181C: >4.3

## N#C/C=C/c1cc(F)c(-c2cccc3c(N)nc(Nc4ccc(C#N)cc4)nc23)c(F)c1 [Compound 8, (E)-4-((4-Amino-8-(4-(2-cyanovinyl)-2,6-difluorophenyl)quinazolin-2-yl)amino)benzonitrile]
[1]; [4]
  EC50: 2.7 nM
[1]; [5]
  EC50: 2.8 nM
[2]
  EC50: 3.7 nM
  FC against mutant K103N: 1.3
[3]
  EC50: 21.7 nM
  FC against mutant Y181C: 7.8

## Cc1cc(/C=C/C#N)cc(C)c1-c1cc(F)cc2cnc(Nc3ccc(C#N)cn3)nc12 [Compound 14, (E)-6-((8-(4-(2-Cyanovinyl)-2,6-dimethylphenyl)-6-fluoroquinazolin-2-yl)amino)nicotinonitrile]
[1]; [4]
  EC50: 8.1 nM
[1]; [5]
  EC50: 12.7 nM
[2]
  EC50: 15.1 nM
  FC against mutant K103N: 1.2
[3]
  EC50: 122 nM
  FC against mutant Y181C: 9.6

## Cc1cc(Nc2nc(N)c3cccc(-c4c(C)cc(/C=C/C#N)cc4C)c3n2)nc(C)c1C#N [Compound 15, (E)-6-((4-Amino-8-(4-(2-cyanovinyl)-2,6-dimethylphenyl)quinazolin-2-yl)amino)-2,4-dimethylnicotinonitrile]
[1]; [4]
  EC50: 22.6 nM
[1]; [5]
  EC50: 33.2 nM
[2]
  EC50: 72.2 nM
  FC against mutant K103N: 2.2
[3]
  EC50: 180 nM
  FC against mutant Y181C: 5.4

## Cc1cc(/C=C/C#N)cc(C)c1-c1cccc2c(N)nc(Nc3ccc(C#N)c(C)n3)nc12 [Compound 16, (E)-6-((4-Amino-8-(4-(2-cyanovinyl)-2,6-dimethylphenyl)quinazolin-2-yl)amino)-2-methylnicotinonitrile]
[1]; [4]
  EC50: 6.3 nM
[1]; [5]
  EC50: 7.5 nM
[2]
  EC50: 12.5 nM
  FC against mutant K103N: 1.7
[3]
  EC50: 42.6 nM
  FC against mutant Y181C: 5.7

## Cc1cc(C#N)cnc1Nc1nc(N)c2cccc(-c3c(C)cc(/C=C/C#N)cc3C)c2n1 [Compound 17, (E)-6-((4-Amino-8-(4-(2-cyanovinyl)-2,6-dimethylphenyl)quinazolin-2-yl)amino)-5-methylnicotinonitrile]
[1]; [4]
  EC50: 229 nM
[1]; [5]
  EC50: 190 nM
[2]
  EC50: 151 nM
  FC against mutant K103N: 0.8
[3]
  EC50: > 500 nM
  FC against mutant Y181C: >2.6

## Cc1cc(Nc2nc(N)c3cccc(-c4c(C)cc(/C=C/C#N)cc4C)c3n2)ncc1C#N [Compound 18, (E)-6-((4-Amino-8-(4-(2-cyanovinyl)-2,6-dimethylphenyl)quinazolin-2-yl)amino)-4-methylnicotinonitrile]
[1]; [4]
  EC50: 21.9 nM
[1]; [5]
  EC50: 13.1 nM
[2]
  EC50: 12.1 nM
  FC against mutant K103N: 0.9
[3]
  EC50: 112 nM
  FC against mutant Y181C: 8.6

## Cc1cc(/C=C/C#N)cc(C)c1-c1cc(Cl)cc2c(N)nc(Nc3ccc(C#N)cc3)nc12 [Compound 19, (E)-4-((4-Amino-6-chloro-8-(4-(2-cyanovinyl)-2,6-dimethylphenyl)quinazolin-2-yl)amino)benzonitrile]
[1]; [4]
  EC50: 27.5 nM
[1]; [5]
  EC50: 29 nM
[2]
  EC50: 30.3 nM
  FC against mutant K103N: 1.0
[3]
  EC50: 79.7 nM
  FC against mutant Y181C: 2.7

## Cc1cc(/C=C/C#N)cc(C)c1-c1cc(F)cc2c(N)nc(Nc3ccc(C#N)cn3)nc12 [Compound 20, (E)-6-((4-Amino-8-(4-(2-cyanovinyl)-2,6-dimethylphenyl)-6-fluoroquinazolin-2-yl)amino)nicotinonitrile]
[1]; [4]
  EC50: 7 nM
[1]; [5]
  EC50: 6.6 nM
[2]
  EC50: 7.1 nM
  FC against mutant K103N: 1.1
[3]
  EC50: 69.9 nM
  FC against mutant Y181C: 10.5

## Cc1cc(-c2c(C)cc(/C=C/C#N)cc2C)c2nc(Nc3ccc(C#N)cn3)nc(N)c2c1 [Compound 21, (E)-6-((4-Amino-8-(4-(2-cyanovinyl)-2,6-dimethylphenyl)-6-methylquinazolin-2-yl)amino)nicotinonitrile]
[1]; [4]
  EC50: 10.1 nM
[1]; [5]
  EC50: 10.6 nM
[2]
  EC50: 10.8 nM
  FC against mutant K103N: 1.0
[3]
  EC50: 187 nM
  FC against mutant Y181C: 17.6

## Cc1cc(/C=C/C#N)cc(C)c1-c1cc([N+](=O)[O-])cc2c(N)nc(Nc3ccc(C#N)cn3)nc12 [Compound 22, (E)-6-((4-Amino-8-(4-(2-cyanovinyl)-2,6-dimethylphenyl)-6-nitroquinazolin-2-yl)amino)nicotinonitrile]
[1]; [4]
  EC50: 69.3 nM
[1]; [5]
  EC50: 87.5 nM
[2]
  EC50: 101 nM
  FC against mutant K103N: 1.2
[3]
  EC50: > 500 nM
  FC against mutant Y181C: >5.7

## Cc1cc(/C=C/C#N)cc(C)c1-c1cc(N)cc2c(N)nc(Nc3ccc(C#N)cn3)nc12 [Compound 23, (E)-6-((4,6-Diamino-8-(4-(2-cyanovinyl)-2,6-dimethylphenyl)quinazolin-2-yl)amino)nicotinonitrile]
[1]; [4]
  EC50: 8.7 nM

## COc1cc(-c2c(C)cc(/C=C/C#N)cc2C)c2nc(Nc3ccc(C#N)cn3)nc(N)c2c1 [Compound 24, (E)-6-((4-Amino-8-(4-(2-cyanovinyl)-2,6-dimethylphenyl)-6-methoxyquinazolin-2-yl)amino)nicotinonitrile]
[1]; Human immunodeficiency virus 1, MT4, 120 h, read-out: MT4 EC50 (nM) against w.t.
  EC50: 27.8 nM
[1]; [5]
  EC50: 27.8 nM
[2]
  EC50: 32.5 nM
  FC against mutant K103N: 1.2
[3]
  EC50: 478 nM
  FC against mutant Y181C: 17.2

## Cc1cc(/C=C/C#N)cc(C)c1-c1cc(Br)cc2c(N)nc(Nc3ccc(C#N)cc3)nc12 [Compound 25, (E)-4-((4-Amino-6-bromo-8-(4-(2-cyanovinyl)-2,6-dimethylphenyl)quinazolin-2-yl)amino)benzonitrile]
[1]; [4]
  EC50: 39.1 nM
[1]; [5]
  EC50: 28.3 nM
[2]
  EC50: 44.1 nM
  FC against mutant K103N: 1.6
[3]
  EC50: 160 nM
  FC against mutant Y181C: 5.6

## Cc1cc(/C=C/C#N)cc(C)c1-c1cc(F)cc2c(N)nc(Nc3cnc(C#N)cn3)nc12 [Compound 26, (E)-5-((4-Amino-8-(4-(2-cyanovinyl)-2,6-dimethylphenyl)-6-fluoroquinazolin-2-yl)amino)pyrazine-2-carbonitrile]
[1]; [4]
  EC50: 2.7 nM
[1]; [5]
  EC50: 2 nM
[2]
  EC50: 2.4 nM
  FC against mutant K103N: 1.2
[3]
  EC50: 27.2 nM
  FC against mutant Y181C: 13.5

## Cc1cc(/C=C/C#N)cc(C)c1-c1cc(F)cc2c(N)nc(Nc3ccc(C#N)nn3)nc12 [Compound 27, (E)-6-((4-Amino-8-(4-(2-cyanovinyl)-2,6-dimethylphenyl)-6-fluoroquinazolin-2-yl)amino)pyridazine-3-carbonitrile]
[1]; [4]
  EC50: 6.3 nM
[1]; [5]
  EC50: 3.8 nM
[2]
  EC50: 5.3 nM
  FC against mutant K103N: 1.4
[3]
  EC50: 400 nM
  FC against mutant Y181C: 105.9

## COc1ccc(-c2c(C)cc(/C=C/C#N)cc2C)c2nc(Nc3ccc(C#N)cc3)nc(N)c12 [Compound 28, (E)-4-((4-Amino-8-(4-(2-cyanovinyl)-2,6-dimethylphenyl)-5-methoxyquinazolin-2-yl)amino)benzonitrile]
[1]; [4]
  EC50: 11.4 nM
[1]; [5]
  EC50: 9.1 nM
[2]
  EC50: 14.3 nM
  FC against mutant K103N: 1.6
[3]
  EC50: 57.2 nM
  FC against mutant Y181C: 6.3

## COc1ccc(-c2c(C)cc(/C=C/C#N)cc2C)c2nc(Nc3ccc(C#N)cn3)nc(N)c12 [Compound 29, (E)-6-((4-Amino-8-(4-(2-cyanovinyl)-2,6-dimethylphenyl)-5-methoxyquinazolin-2-yl)amino)nicotinonitrile]
[1]; [4]
  EC50: 22.1 nM
[1]; [5]
  EC50: 18.6 nM
[2]
  EC50: 33.4 nM
  FC against mutant K103N: 1.8
[3]
  EC50: > 500 nM
  FC against mutant Y181C: >26.9

— patent US10548898B2, “Quinazoline compounds” (Gilead Sciences, Inc., priority 2014, dated 2020)
